Experimental data reported in US20070082893A1, “Active substance combination” (LABORATORIOS DEL DR. ESTEVE S.A, priority 2004, published 2007).

Legend:
[1] = tested on: male Swiss mice; assay: Hot plate test in mice; format: in vivo; settings: hot plate 55° C., Cizolirtine (as Citrate salt) 20 mg/kg i.p., Morphine 5 mg/kg s.c., combination 20 + 5 mg/kg; for % Analgesic activity 0.5 hours: 0.5 hours after administration; for % Analgesic activity 1 hour: 1 hour after administration; for % Analgesic activity 2 hours: 2 hours after administration
Description: The analgesic activity of the inventive active substance combination is determined in male Swiss mice (weight 20-25 g, Harlan Iberica, S. Feliu de Codinas, Barcelona, Spain) as described in the publication of G. Woolfe and A. D. MacDonald, J. Pharm. Exp. Ther. 1944, 80, pages 300-307. The respective description of this publication is incorporated by reference and forms part of the present disclosure.
According to this test the mice are put onto a plate, which is heated to 55° C. and the time is determined until the mice show signs of pain such as vigorous and repeated licking of the paws, jumping or pulling back the paws. The mice are kept on the hot plate for no longer than 40 seconds in order to avoid the development of cutaneous lesions. At first the untreated mice are subjected to the hot-plate test to determine a baseline for their pain induced behaviour. After 10 minutes the vehicle, the active substances and the inventive active substance combination to be tested are administered to different groups of mice. 0.5 hours, 1 hour and 2 hours after the administration the animals are put onto the hot plate and the time is measured until they show signs of pain. The analgesic efficacy of the active substances or active substance combination is calculated on the basis of the values obtained for the comparison group of mice which is only administered the vehicle.

[2] = tested on: male Swiss albino mice
Description: Pharmacodyn. 1971, 190, pages 213-218 in male Swiss albino mice (weight 20-25 g, Harlan Iberica, S. Feliu de Codinas, Barcelona, Spain).
Opioid dependency is developed in the mice by intraperitoneal administration of the opioid in a suitable dose known to those skilled in the art, e.g. 5 mg/kg/day for 4 consecutive days for morphine. Withdrawal symptoms are then induced by the intravenous administration of a suitable opioid antagonist in a dose known to those skilled in the art, for example, 2 mg/kg naloxone in case of morphine, 30 minutes after the administration of the final dose of the opioid is completed.
In the 30 minute period following the naloxone administration the mice show typical withdrawal symptoms, namely jumps and shakes (of the wet dog shake type), which are counted and registered.
The active substance combination is also administered to the mice for 4 consecutive days. After the administration of 2 mg/kg naloxone 30 minutes after the administration of the final dose of the active substance combination has been completed, the mice are closely watched for withdrawal symptoms, namely jumps and shakes (of the wet dog shake type), which are then counted and registered.
The influence of the active substance combination on withdrawal symptoms has been determined as described above.

[3] = 30 minute period after 2 mg/kg naloxone, Morphine 5 mg/kg/day s.c. over 4 days, alone or with Cizolirtine citrate 40 mg/kg/day i.p.

CN(C)CCOC(c1ccccc1)c1ccnn1C.O=C(O)CC(O)(CC(=O)O)C(=O)O (racemic) [Cizolirtine, (±)-5-[α-[2-(Dimethylamino)ethoxy]benzyl]-1-methyl-1H-pyrazole citrate]
% Analgesic activity 0.5 hours [1]: 25.8% | % Analgesic activity 1 hour [1]: 17.1% | % Analgesic activity 2 hours [1]: 23.4% | withdrawal symptoms associated with morphine on co-administration (in words) ([2]; table B, co-administered with morphine, opioid amount not reduced): significantly reduced

CN1CC[C@]23c4c5ccc(O)c4O[C@H]2[C@@H](O)C=C[C@H]3[C@H]1C5 [Morphine]
% Analgesic activity 0.5 hours [1]: 48.6% | % Analgesic activity 1 hour [1]: 34.8% | % Analgesic activity 2 hours [1]: 15.8% | Number of jumps [2, 3]: 6.6 | Number of shakes [2, 3]: 16.3
